According to patent US20030110524A1, “TRANSGENIC ORGANISMS AND THEIR USES” (priority 1997, published 2003):

Assays:
[1] = test system: lung fibroblast cells derived from TG/TK/neo^r transgenic rats; experiment: Survival of lung fibroblast cells from TG/TK/neo^r transgenic rats with drugs; format: cell-based, rat; conditions: for Survival of lung fibroblast cells (related to number of cells in control cultures without drug): TG/TK/neo^r rat cells, drugs added at day 2, geneticin 400 μg/ml, 5FC 100 μg/ml
Description: (§1) Fibroblast cultures derived from lung of adult CD2/neo^r, TG/TK/neo^r and control animals were produced and expanded by routine methods (Freshney (1987), Alan R. Liss, New York). Twenty-four hours after plating, geneticin (400 μg/ml) was added to cultures originating from both types of transgenic rats and from control rats, and replaced every three days with fresh medium. When required, cells were subcultured (1:3) to prevent them becoming confluent, again by basic culture methods (Freshney 1987). Cell counts were made manually in 20 fields chosen randomly and the values at each time point, after allowing for changes due to subculturing, were aggregated. […] In the absence of added geneticin, no change in cell survival from either of the transgenic animals was observed.
(§2) The effects of 5-fluorocytosine (5FC) were also determined. 5-fluorocytosine at a concentration of 100 μg/ml had no effect on fibroblast cells derived from control animals or from the TG/TK/neo^r transgenic. In the cells derived from the CD2/neo^r transgenic animal, however, 94% of the originally-plated cells died, or were non-functional (as determined by their failure to exclude trypan blue) after 10 days culture in the presence of 5FC (Table 2).
(§3) Drugs were added at day 2 in culture. Values are related to the number of cells found in control cultures without drug additions at various times after plating, and allowing for dilutions resulting from passaging. Figures are the means of three separate determinations, the standard errors all being less than 15% of the mean.

[2] = test system: lung fibroblast cells derived from CD2/neo^r transgenic rats; experiment: Survival of lung fibroblast cells from CD2/neo^r transgenic rats with drugs; format: cell-based, rat; conditions: for Survival of lung fibroblast cells (related to number of cells in control cultures without drug): CD2/neo^r rat cells, drugs added at day 2, geneticin 400 μg/ml, 5FC 100 μg/ml
Description: as §1, §2, §3

[3] = test system: lung fibroblast cells derived from control rats; experiment: Survival of lung fibroblast cells from control rats with drugs; format: cell-based, rat; conditions: for Survival of lung fibroblast cells (related to number of cells in control cultures without drug): control rat cells, drugs added at day 2, geneticin 400 μg/ml, 5FC 100 μg/ml
Description: as §1, §2, §3

thyroid follicle cells = experiment: Ablation of thyroid follicle cells in vivo; design: species or system rat
[4] = test system: thyroid cells derived from TG/TK/neo^r transgenic rats; experiment: Survival of thyroid cells from TG/TK/neo^r transgenic rats with drugs; format: cell-based, rat; conditions: for Survival of thyroid cells (related to number of cells in control cultures without drug): TG/TK/neo^r rat cells, drugs added at day 2, geneticin 400 μg/ml, ACG 10 μg/ml
Description: (§4) Thyroid cultures derived from the thyroid gland of adult CD2/neo^r, TG/TK/neo^r and control animals were produced by routine methods (Freshney, 1987). Twenty-four hours after plating, geneticin (400 μg/ml) was added to cultures originating from both types of transgenic and the control rats, and replaced every three days with fresh medium. When required, cells were subcultured (1:2) to prevent their becoming confluent. Cell counts were made manually in 20 fields chosen randomly, and the values at each time point, after allowing for changes due to subculturing, were aggregated (Table 3). […] Ten days later, cell counts were again made of 20 fields chosen at random. […] The results were as expected in view of the specific and non-specific expression of the positive and negative selection markers, in the TG/TK/neo^r and CD2/neo^r transgenics, respectively.
as §3, with “allow” for “allowing”

[5] = test system: thyroid cells derived from control rats; experiment: Survival of thyroid cells from control rats with drugs; format: cell-based, rat; conditions: for Survival of thyroid cells (related to number of cells in control cultures without drug): control rat cells, drugs added at day 2, geneticin 400 μg/ml, ACG 10 μg/ml
Description: as §4
as §3, with “allow” for “allowing”

[6] = test system: thyroid cells derived from CD2/neo^r transgenic rats; experiment: Survival of thyroid cells from CD2/neo^r transgenic rats with drugs; format: cell-based; conditions: CD2/neo^r rat cells, drugs added at day 2, geneticin 400 μg/ml, ACG 10 μg/ml
Description: as §4
as §3, with “allow” for “allowing”

[7] = transgenic rats treated with ACG for 12 days

Nc1nc(=O)[nH]cc1F [5FC, 5-fluorocytosine] was tested, and the “Survival of lung fibroblast cells (related to number of cells in control cultures without drug)” value ([1]; day 1 in culture) was 98, the “Survival of lung fibroblast cells (related to number of cells in control cultures without drug)” value ([1]; day 3 in culture) was 96 and the “Survival of lung fibroblast cells (related to number of cells in control cultures without drug)” value ([1]; day 5 in culture) was 95. For the same molecule, the “Survival of lung fibroblast cells (related to number of cells in control cultures without drug)” value ([1]; day 7 in culture) was 92, the “Survival of lung fibroblast cells (related to number of cells in control cultures without drug)” value ([1]; day 9 in culture) was 92 and the “Survival of lung fibroblast cells (related to number of cells in control cultures without drug)” value ([1]; day 11 in culture) was 93. The “Effect of 5-fluorocytosine on fibroblast cells” value ([1]; TG/TK/neo^r transgenic, 100 μg/ml) was “had no effect”, the “Survival of lung fibroblast cells (related to number of cells in control cultures without drug)” value ([2]; day 1 in culture) was 94 and the “Survival of lung fibroblast cells (related to number of cells in control cultures without drug)” value ([2]; day 3 in culture) was 5. The “Survival of lung fibroblast cells (related to number of cells in control cultures without drug)” value ([2]; day 5 in culture) was 3, the “Survival of lung fibroblast cells (related to number of cells in control cultures without drug)” value ([2]; day 7 in culture) was 3 and the “Survival of lung fibroblast cells (related to number of cells in control cultures without drug)” value ([2]; day 9 in culture) was 4. For the same molecule, the “Survival of lung fibroblast cells (related to number of cells in control cultures without drug)” value ([2]; day 11 in culture) was 4, the “Originally-plated cells died, or were non-functional (failure to exclude trypan blue)” value ([2]; CD2/neo^r transgenic, 100 μg/ml, after 10 days culture in the presence of 5FC) was 94% and the “Effect of 5-fluorocytosine on fibroblast cells” value ([3]; control animals, 100 μg/ml) was “had no effect”. The “Survival of lung fibroblast cells (related to number of cells in control cultures without drug)” value ([3]; day 1 in culture) was 101, the “Survival of lung fibroblast cells (related to number of cells in control cultures without drug)” value ([3]; day 3 in culture) was 105 and the “Survival of lung fibroblast cells (related to number of cells in control cultures without drug)” value ([3]; day 5 in culture) was 98. The “Survival of lung fibroblast cells (related to number of cells in control cultures without drug)” value ([3]; day 7 in culture) was 97, the “Survival of lung fibroblast cells (related to number of cells in control cultures without drug)” value ([3]; day 9 in culture) was 93 and the “Survival of lung fibroblast cells (related to number of cells in control cultures without drug)” value ([3]; day 11 in culture) was 96. The “Difference in cell counts between cultures in the absence and presence of 5FC” value ([3]; control rats) was “no significant difference in cell counts”.

In the case of Nc1nc2c(ncn2COCCO)c(=O)[nH]1 [ACG, acycloguanosine], the “Effect on T3 and T4” value (thyroid follicle cells; lower amounts of ACG per day) was “partial loss of T3 and T4”, the “Serum level of T4” value (thyroid follicle cells; transgenic adult female rats, 50 mg ACG per day i.p. for 5 days, seven days after the final injection, N=6) was “less than 2.5 nM” and the “Histochemical analysis of thyroid glands” value (thyroid follicle cells; [7]) was “almost complete loss of follicular cells”. For the same molecule, the “Thyroid gland weight, of the original weights” value (thyroid follicle cells; [7]) was 7%, the “Survival of thyroid cells (related to number of cells in control cultures without drug)” value ([4]; day 1 in culture) was 98 and the “Survival of thyroid cells (related to number of cells in control cultures without drug)” value ([4]; day 3 in culture) was 38. For the same molecule, the “Survival of thyroid cells (related to number of cells in control cultures without drug)” value ([4]; day 5 in culture) was 12, the “Survival of thyroid cells (related to number of cells in control cultures without drug)” value ([4]; day 7 in culture) was 10 and the “Survival of thyroid cells (related to number of cells in control cultures without drug)” value ([4]; day 9 in culture) was 8. For the same molecule, the “Survival of thyroid cells (related to number of cells in control cultures without drug)” value ([4]; day 11 in culture) was 7, the “Survival of thyroid cells under ACG treatment” value ([4]; TG/TK/neo^r transgenic, 10 μg/ml ACG) was “did not survive ACG treatment” and the “Survival of thyroid cells under ACG treatment” value ([5]; control animals, 10 μg/ml ACG) was “the cells derived from the control animals did”. The “Survival of thyroid cells (related to number of cells in control cultures without drug)” value ([5]; day 1 in culture) was 94, the “Survival of thyroid cells (related to number of cells in control cultures without drug)” value ([5]; day 3 in culture) was 97 and the “Survival of thyroid cells (related to number of cells in control cultures without drug)” value ([5]; day 5 in culture) was 98. For the same molecule, the “Survival of thyroid cells (related to number of cells in control cultures without drug)” value ([5]; day 7 in culture) was 91, the “Survival of thyroid cells (related to number of cells in control cultures without drug)” value ([5]; day 9 in culture) was 92 and the “Survival of thyroid cells (related to number of cells in control cultures without drug)” value ([5]; day 11 in culture) was 102. For the same molecule, the “Survival of thyroid cells (related to number of cells in control cultures without drug)” value ([6]; day 1 in culture) was 98, the “Survival of thyroid cells (related to number of cells in control cultures without drug)” value ([6]; day 3 in culture) was 90 and the “Survival of thyroid cells (related to number of cells in control cultures without drug)” value ([6]; day 5 in culture) was 93. The “Survival of thyroid cells (related to number of cells in control cultures without drug)” value ([6]; day 7 in culture) was 93, the “Survival of thyroid cells (related to number of cells in control cultures without drug)” value ([6]; day 9 in culture) was 97 and the “Survival of thyroid cells (related to number of cells in control cultures without drug)” value ([6]; day 11 in culture) was 88.
